# Measurements: ChEMBL document CHEMBL1134435, “Synthesis of novel sialylmimetics as biological probes” (Bioorg Med Chem Lett, 2001)
# Experiments:
# Rotavirus [1] = test: Inhibitory concentration against Wa (human) strain of rotavirus; assay type: functional, organism-based
# Rotavirus [2] = test: Inhibitory concentration against NCDV (bovine) strain of rotavirus; assay type: functional, organism-based
# E-selectin = molecular target: T1, E-selectin (Homo sapiens, UniProt P16581); test: Inhibitory concentration against E-selectin
# T1 sequence (P16581 whole entry): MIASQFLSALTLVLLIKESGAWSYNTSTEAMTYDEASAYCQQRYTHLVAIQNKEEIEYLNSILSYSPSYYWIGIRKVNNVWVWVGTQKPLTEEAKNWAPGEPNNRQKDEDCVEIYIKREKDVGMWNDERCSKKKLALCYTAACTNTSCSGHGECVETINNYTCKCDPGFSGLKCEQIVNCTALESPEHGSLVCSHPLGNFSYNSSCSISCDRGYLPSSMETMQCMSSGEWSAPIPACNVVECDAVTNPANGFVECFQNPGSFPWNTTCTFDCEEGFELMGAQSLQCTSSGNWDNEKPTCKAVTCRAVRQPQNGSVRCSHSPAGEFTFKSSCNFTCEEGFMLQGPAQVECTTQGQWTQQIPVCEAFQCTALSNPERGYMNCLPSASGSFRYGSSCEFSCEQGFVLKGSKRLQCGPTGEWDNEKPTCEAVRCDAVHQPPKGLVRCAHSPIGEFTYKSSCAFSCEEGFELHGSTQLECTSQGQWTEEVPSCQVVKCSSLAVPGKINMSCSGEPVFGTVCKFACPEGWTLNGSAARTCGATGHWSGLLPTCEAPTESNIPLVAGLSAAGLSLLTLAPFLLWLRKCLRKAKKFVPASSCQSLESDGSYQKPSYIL
Structure (SMILES),IC50 (Rotavirus [1]) [µM],IC50 (Rotavirus [2]) [µM],IC50 (E-selectin) [µM]
COC1OC(CSC(C)C(=O)O)C(O)C(O)C1O (centres undefined),> 25000,> 25000,–
CC(=O)N[C@H]1[C@H]([C@H](O)[C@H](O)CO)O[C@@](O[C@H]2[C@@H](O)[C@@H](CO)O[C@@H](O[C@@H]([C@H](O[C@@H]3O[C@@H](C)[C@@H](O)[C@@H](O)[C@@H]3O)[C@H](C=O)NC(C)=O)[C@H](O)CO)[C@@H]2O)(C(=O)O)C[C@@H]1O [SIALYL LEWIS X],–,–,700
C[C@@H]1O[C@@H](O[C@@H]2CCCC[C@H]2O[C@@H]2O[C@@H](CO)[C@H](O)[C@H](OCC(=O)O)[C@@H]2O)[C@@H](O)[C@@H](O)[C@@H]1O,–,–,500
